Experimental data taken from ChEMBL document CHEMBL4680348, “1,2,4-Thiadiazole acyclic nucleoside phosphonates as inhibitors of cysteine dependent enzymes cathepsin K and GSK-3β” (Bioorg Med Chem, 2021).

What was measured:
[1] = target: T1, Cathepsin K (Homo sapiens) (UniProt P43235); assay: Inhibition of recombinant human Cathepsin K expressed in Pichia pastoris X-33 assessed as residual activity at 10 uM using Z-Gly-Pro-Arg-AMC as substrate preincubated for 10 mins followed by substrate addition measured after 30 mins by fluorescence based microplate reader assay; settings: time 40.0 min
T1 sequence (whole entry): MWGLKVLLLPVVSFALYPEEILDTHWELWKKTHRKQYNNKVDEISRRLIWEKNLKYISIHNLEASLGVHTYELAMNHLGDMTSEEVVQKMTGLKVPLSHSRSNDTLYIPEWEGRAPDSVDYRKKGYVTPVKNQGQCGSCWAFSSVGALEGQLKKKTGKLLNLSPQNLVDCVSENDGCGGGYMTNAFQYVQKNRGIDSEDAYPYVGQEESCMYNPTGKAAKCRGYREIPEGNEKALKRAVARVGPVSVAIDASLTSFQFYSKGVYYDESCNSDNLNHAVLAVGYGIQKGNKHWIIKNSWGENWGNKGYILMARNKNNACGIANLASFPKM

CCRF-CEM [2] = assay: Cytotoxicity against human CCRF-CEM cells assessed as cell viability at 10 uM incubated for 72 hrs by CellTiter-Glo luminescence based assay; format: functional; settings: read-out: Activity
CCRF-CEM [3] = assay: Cytotoxicity against human CCRF-CEM cells assessed as cell viability at 100 uM incubated for 72 hrs by CellTiter-Glo luminescence based assay; format: functional; settings: read-out: Activity
HL-60 [4] = assay: Cytotoxicity against human HL-60 cells assessed as cell viability at 10 uM incubated for 72 hrs by CellTiter-Glo luminescence based assay; format: functional; settings: read-out: Activity
HL-60 [5] = assay: Cytotoxicity against human HL-60 cells assessed as cell viability at 100 uM incubated for 72 hrs by CellTiter-Glo luminescence based assay; format: functional; settings: read-out: Activity
HeLa S3 [6] = assay: Cytotoxicity against human HeLa S3 cells assessed as cell viability at 10 uM incubated for 72 hrs by CellTiter-Glo luminescence based assay; format: functional; settings: read-out: Activity
HeLa S3 [7] = assay: Cytotoxicity against human HeLa S3 cells assessed as cell viability at 100 uM incubated for 72 hrs by CellTiter-Glo luminescence based assay; format: functional; settings: read-out: Activity
HepG2 [8] = assay: Cytotoxicity against human HepG2 cells assessed as cell viability at 10 uM incubated for 72 hrs by CellTiter-Glo luminescence based assay; format: functional; settings: read-out: Activity
HepG2 [9] = assay: Cytotoxicity against human HepG2 cells assessed as cell viability at 100 uM incubated for 72 hrs by CellTiter-Glo luminescence based assay; format: functional; settings: read-out: Activity
SH-SY5Y [10] = assay: Cytotoxicity against human SH-SY5Y cells assessed as cell viability at 10 uM incubated for 72 hrs by CellTiter-Glo luminescence based assay; format: functional; settings: read-out: Activity
SH-SY5Y [11] = assay: Cytotoxicity against human SH-SY5Y cells assessed as cell viability at 100 uM incubated for 72 hrs by CellTiter-Glo luminescence based assay; format: functional; settings: read-out: Activity
[12] = Cytotoxicity against human NHDF cells assessed as cell viability at 10 uM incubated for 72 hrs by CellTiter-Glo luminescence based assay; settings: read-out: Activity
[13] = Cytotoxicity against human NHDF cells assessed as cell viability at 100 uM incubated for 72 hrs by CellTiter-Glo luminescence based assay; settings: read-out: Activity
[14] = target: Glycogen synthase kinase-3 beta (Homo sapiens, UniProt P49841); assay: Inhibition of human recombinant GSK3beta using GSK3 peptide as substrate preincubated for 15 mins followed by ATP addition and measured after 90 mins by ADP-Glo kinase assay
Glycogen synthase kinase-3 beta, sequence (P49841 whole entry): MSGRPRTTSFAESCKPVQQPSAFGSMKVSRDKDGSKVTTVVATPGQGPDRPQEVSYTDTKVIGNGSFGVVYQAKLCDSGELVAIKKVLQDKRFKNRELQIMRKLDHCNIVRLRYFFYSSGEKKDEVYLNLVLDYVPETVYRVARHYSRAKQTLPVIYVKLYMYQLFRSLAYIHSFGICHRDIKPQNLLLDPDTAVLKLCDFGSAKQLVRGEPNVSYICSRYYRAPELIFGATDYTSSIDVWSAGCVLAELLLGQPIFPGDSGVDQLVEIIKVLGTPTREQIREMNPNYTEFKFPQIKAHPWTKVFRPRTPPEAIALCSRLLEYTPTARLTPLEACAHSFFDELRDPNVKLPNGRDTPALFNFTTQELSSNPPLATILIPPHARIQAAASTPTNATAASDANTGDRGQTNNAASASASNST

Row | Activity [1] [%] | IC50 [14] [µM] | Compound | viability at 10 µM (CCRF-CEM [2]) [%] | viability at 100 µM (CCRF-CEM [3]) [%] | viability at 10 µM (HL-60 [4]) [%] | viability at 100 µM (HL-60 [5]) [%] | viability at 10 µM (HeLa S3 [6]) [%] | viability at 100 µM (HeLa S3 [7]) [%] | viability at 10 µM (HepG2 [8]) [%] | viability at 100 µM (HepG2 [9]) [%] | viability at 10 µM (SH-SY5Y [10]) [%] | viability at 100 µM (SH-SY5Y [11]) [%] | viability at 72 h, 10 µM [12] [%] | viability at 72 h, 100 µM [13] [%]
1 | 80.6 | > 10 | CC(C)OP(=O)(COCCn1sc(NC(=O)c2ccccc2)nc1=O)OC(C)C | 100 | 94 | 104 | 115 | 101 | 100 | 103 | 101 | 104 | 101 | 103 | 101
2 | 92.3 | > 10 | O=C(Nc1nc(=O)n(C[C@@H](CO)OCP(=O)(O)O)s1)c1ccccc1 | 72 | 61 | 103 | 106 | 97 | 101 | 101 | 100 | 101 | 103 | 105 | 98
3 | 85 | > 10 | O=C(Nc1nc(=O)[nH]s1)c1ccccc1 | 102 | 96 | 101 | 110 | 99 | 101 | 99 | 77 | 103 | 90 | 104 | 100
4 | 83.4 | > 10 | CCOC(=O)Nc1nc(=O)n(C[C@@H](CO)OCP(=O)(OC(C)C)OC(C)C)s1 | 67 | 45 | 97 | 101 | 90 | 87 | 101 | 93 | 104 | 104 | 104 | 100
5 | 86.8 | > 10 | CCOC(=O)Nc1nc(=O)n(CCOCP(=O)(OC(C)C)OC(C)C)s1 | 92 | 98 | 102 | 111 | 100 | 101 | 104 | 100 | 105 | 104 | 101 | 98

Further lines, the molecule ahead of its results:

Row | Compound | Activity [1] [%] | IC50 [14] [µM] | viability at 10 µM (CCRF-CEM [2]) [%] | viability at 100 µM (CCRF-CEM [3]) [%] | viability at 10 µM (HL-60 [4]) [%] | viability at 100 µM (HL-60 [5]) [%] | viability at 10 µM (HeLa S3 [6]) [%] | viability at 100 µM (HeLa S3 [7]) [%] | viability at 10 µM (HepG2 [8]) [%] | viability at 100 µM (HepG2 [9]) [%] | viability at 10 µM (SH-SY5Y [10]) [%] | viability at 100 µM (SH-SY5Y [11]) [%] | viability at 72 h, 10 µM [12] [%] | viability at 72 h, 100 µM [13] [%]
6 | CCOC(=O)Nc1nc(=O)n(C[C@@H](CO)OCP(=O)(O)O)s1 | 97.5 | > 10 | 94 | 114 | 95 | 99 | 97 | 94 | 99 | 89 | 100 | 99 | 101 | 99
7 | CN(C)/C=N/c1nc(=O)[nH]s1 | 67 | > 10 | 122 | 84 | 102 | 105 | 97 | 112 | 97 | 85 | 100 | 75 | 105 | 107
8 | Nc1nc(OCCOCP(=O)(O)O)ns1 | 90 | > 10 | 113 | 112 | 103 | 100 | 101 | 102 | 97 | 93 | 101 | 99 | 105 | 96
9 | CC(=O)Nc1nc(=O)[nH]s1 | 76.6 | > 10 | 104 | 102 | 105 | 108 | 97 | 102 | 103 | 88 | 102 | 99 | 99 | 105
